Source: US6287794A, “Factor Vlla inhibitors” (Aventis Pharma Deutschland GmbH, priority 1998, dated 2001)
Starred links: 1 amine or outer side, 2 acyl side, 3 side chain; linkers in the order of their positions; H or OH if unused. Non-standard residues stand in square brackets, D forms with d. Residues, ends and D or L forms follow the SMILES beside them. *: point of attachment. dPhe(4-guanidino) = N=C(N)Nc1ccc(C[C@@H](N)C(=O)O)cc1; Phe(4-NO2) = N[C@@H](Cc1ccc([N+](=O)[O-])cc1)C(=O)O; Phe(4-guanidino) = N=C(N)Nc1ccc(C[C@H](N)C(=O)O)cc1; Phe(4-amidino) = N=C(N)c1ccc(C[C@H](N)C(=O)O)cc1; Orn(acetimidoyl) = CC(=N)NCCC[C@H](N)C(=O)O; d(hArg) = N=C(N)NCCCC[C@@H](N)C(=O)O; Cha = N[C@@H](CC1CCCCC1)C(=O)O; Agb = N=C(N)NCC[C@H](N)C(=O)O; Phg = N[C@H](C(=O)O)c1ccccc1; Dab = NCC[C@H](N)C(=O)O; CO = O=C([*:1])[*:2]; Alloc = C=CCOC(=O)*; Bn = c1ccc(C*)cc1; NHAllyl = C=CCN*

The compounds below were run against T1, human factor VIIa and TF (Homo sapiens, UniProt P08709) (assay: Determination of Ki for FVIIa inhibition (chromogenic assay, substrate S-2288)). Settings: human factor VIIa 5 nM and TF 10 nM, S-2288 500 μM, 25° C., 15 minute preincubation, pH 8.15; read-out: Factor VIIa inhibitory activities Ki.
T1 construct: human factor VIIa and TF
Format: biochemical
Protocol: The inhibitory activity (Ki) of each compound towards […] activity was determined using a chromogenic assay essentially as described previously. J. A. Ostrem, F. Al-Obeidi, P. Safar, A. Safarova, S. K. Stringer, M. Patek, M. T. Cross, J. Spoonamore, J. C. LoCascio, P. Kasireddy, D. S. Thorpe, N. Sepetov, M. Lebi, P. Wildgoose, P. Strop, "Discovery of a novel, potent, and specific family of factor Xa inhibitors via combinatorial chemistry". Biochemistry 37 (1998) 1053-1059. Kinetic assays were conducted at 25° C. in half-area microtiter plates (Costar Corp., Cambridge, Mass.) using a kinetic plate reader (Molecular Devices Spectramax 250). A typical assay consisted of 25 μl of human factor VIIa and TF (5 nM and 10 nM, respective final concentration) combined with 40 μl of inhibitor dilutions in 10% DMSO/TBS-PEG buffer (50 mM Tris, 15 mM NaCl, 5 mM CaCl2; 0.05% PEG 8k, pH 8.15). Following a 15 minute preincubation period, the assay was initiated by the addition of 35 μl of the chromogenic substrate S-2288 (D-Ile-Pro-Arg-pNA, Pharmacia Hepar Inc, 500 μM final concentration.). The apparent inhibition constants were calculated from the slope of the progress curves during the linear part of the time course, typically between 1 and 5 min following addition of substrate to the assay. The true Ki was subsequently determined for each compound by correcting for substrate concentration (S) and the Km using the formula Ki=Ki app/(1+(S)/Km). I. H. Segal, Enzyme Kinetics, pp 100-125 (John Wiley & Sons, N.Y., 1975).

T1 sequence (P08709 213-466 limits assumed): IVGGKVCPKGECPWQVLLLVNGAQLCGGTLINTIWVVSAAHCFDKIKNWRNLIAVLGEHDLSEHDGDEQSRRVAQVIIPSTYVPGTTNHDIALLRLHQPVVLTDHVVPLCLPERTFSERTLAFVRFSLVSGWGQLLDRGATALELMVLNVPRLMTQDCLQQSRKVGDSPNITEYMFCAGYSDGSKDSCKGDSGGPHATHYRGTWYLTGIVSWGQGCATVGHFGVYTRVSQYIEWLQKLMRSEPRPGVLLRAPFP
T1 sequence (P08709 61-212 limits assumed): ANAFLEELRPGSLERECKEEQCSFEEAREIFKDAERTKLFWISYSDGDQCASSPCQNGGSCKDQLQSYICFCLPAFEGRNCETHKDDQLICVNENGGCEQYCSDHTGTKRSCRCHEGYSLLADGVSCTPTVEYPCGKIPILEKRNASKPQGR
T1 sequence (P13726 33-295 partner): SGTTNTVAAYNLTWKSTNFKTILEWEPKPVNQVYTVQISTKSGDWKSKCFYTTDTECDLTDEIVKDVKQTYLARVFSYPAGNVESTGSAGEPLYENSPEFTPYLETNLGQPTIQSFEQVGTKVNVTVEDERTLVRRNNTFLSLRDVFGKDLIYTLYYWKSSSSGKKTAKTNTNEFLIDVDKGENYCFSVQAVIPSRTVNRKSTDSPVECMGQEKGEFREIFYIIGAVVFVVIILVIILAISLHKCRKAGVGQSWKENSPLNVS

Structure (SMILES) | Ki
C=CCOC(=O)N[C@@H](Cc1ccc(C(=N)N)cc1)C(=O)N[C@@H](CCC(=O)O)C(=O)N[C@@H](CSC)C(=O)N[C@@H](CC1CCCCC1)C(N)=O [Alloc--pAph--Glu--Cys(Me)--Cha--NH2] (Alloc-[Phe(4-amidino)]EC(Me)[Cha]-NH2) | 200 nM
C=CCOC(=O)N[C@@H](Cc1ccc(C(=N)N)cc1)C(=O)N[C@@H](CCC(=O)O)C(=O)N[C@H](Cc1ccc(NC(=N)N)cc1)C(=O)N[C@@H](CC1CCCCC1)C(N)=O [Alloc--pAph--Glu--D--Phe(4-guanidino)--Cha--NH2] (Alloc-[Phe(4-amidino)]E[dPhe(4-guanidino)][Cha]-NH2) | 11300 nM
C=CCOC(=O)N[C@@H](Cc1ccc(C(=N)N)cc1)C(=O)N[C@@H](CCC(=O)O)C(=O)N[C@@H](CCN)C(=O)NCCc1ccccc1 [Alloc--pAph--Glu--Dab--NH--(CH2)2 --Ph, Alloc-pAph-Glu-Dab-NH--CH2 --CH2 --Ph] | 380 nM
C=CCOC(=O)N[C@@H](Cc1ccc(C(=N)N)cc1)C(=O)N[C@@H](CCC(=O)O)C(=O)N[C@@H](CNC(=N)N)C(N)=O [Alloc--pAph--Glu--Dap[--C(=NH)--NH2]--NH2] | 260 nM
C=CCOC(=O)N[C@@H](Cc1ccc(C(=N)N)cc1)C(=O)N[C@@H](CCC(=O)O)C(=O)N[C@@H](CNC(=N)N)C(=O)N[C@@H](Cc1ccc(C2(c3ccccc3)SCCS2)cc1)C(N)=O [Alloc--pAph--Glu--Dap[--C(=NH)--NH2]--Phe[4-C(--S--(CH2)2 --S--)--Ph]--NH2] | 15 nM
C=CCOC(=O)N[C@@H](Cc1ccc(C(=N)N)cc1)C(=O)N[C@@H](CCC(=O)O)C(=O)N[C@@H](CCC(N)=O)C(N)=O [Alloc--pAph--Glu--Gln--NH2] | 1500 nM
C=CCOC(=O)N[C@@H](Cc1ccc(C(=N)N)cc1)C(=O)N[C@@H](CCC(=O)O)C(=O)NCC(=O)N[C@@H](CC1CCCCC1)C(N)=O [Alloc--pAph--Glu--Gly--Cha--NH2, Alloc-pAph-Glu-Gly-Cha-NH2] (Alloc-[Phe(4-amidino)]EG[Cha]-NH2) | 120 nM
C=CCOC(=O)N[C@@H](Cc1ccc(C(=N)N)cc1)C(=O)N[C@@H](CCC(=O)O)C(=O)N[C@@H](Cc1c[nH]cn1)C(=O)N[C@@H](CC1CCCCC1)C(N)=O [Alloc--pAph--Glu--His--Cha--NH2] (Alloc-[Phe(4-amidino)]EH[Cha]-NH2) | 140 nM
C=CCOC(=O)N[C@@H](Cc1ccc(C(=N)N)cc1)C(=O)N[C@@H](CCC(=O)O)C(=O)N[C@@H](CCCN)C(N)=O [Alloc--pAph--Glu--Orn--NH2] | 6200 nM
C=CCOC(=O)N[C@@H](Cc1ccc(C(=N)N)cc1)C(=O)N[C@@H](CCC(=O)O)C(=O)N[C@@H](Cc1ccc([N+](=O)[O-])cc1)C(=O)N[C@@H](CC1CCCCC1)C(N)=O [Alloc--pAph--Glu--Phe(4-NO2)--Cha--NH2] (Alloc-[Phe(4-amidino)]E[Phe(4-NO2)][Cha]-NH2) | 46 nM
C=CCOC(=O)N[C@@H](Cc1ccc(C(=N)N)cc1)C(=O)N[C@@H](CCC(=O)O)C(=O)N[C@H](C(=O)N[C@@H](CC1CCCCC1)C(N)=O)c1ccccc1 [Alloc--pAph--Glu--Phg--Cha--NH2] (Alloc-[Phe(4-amidino)]E[Phg][Cha]-NH2) | 17 nM
C=CCOC(=O)N[C@@H](Cc1ccc(C(=N)N)cc1)C(=O)N[C@@H](CCC(=O)O)C(=O)N[C@H](C(=O)N[C@@H](CC1CCCCC1)C(N)=O)[C@@H](C)OCc1ccccc1 [Alloc--pAph--Glu--Thr(Bzl)--Cha--NH2] (Alloc-[Phe(4-amidino)]ET(Bn)[Cha]-NH2) | 19 nM
C=CCOC(=O)N[C@@H](Cc1ccc(C(=N)N)cc1)C(=O)N[C@@H](CCC(=O)O)C(=O)N[C@@H](Cc1c[nH]c2ccccc12)C(=O)N[C@@H](CC1CCCCC1)C(N)=O [Alloc--pAph--Glu--Trp--Cha--NH2] (Alloc-[Phe(4-amidino)]EW[Cha]-NH2) | 17 nM
C=CCOC(=O)N[C@@H](Cc1ccc(C(=N)N)cc1)C(=O)N[C@@H](CCC(=O)O)C(=O)N[C@@H](Cc1ccc(NC(=N)N)cc1)C(=O)N[C@@H](CC1CCCCC1)C(N)=O [Alloc-pAph-Glu-Phe(4-guanidino)-Cha-NH2] (Alloc-[Phe(4-amidino)]E[Phe(4-guanidino)][Cha]-NH2) | 120 nM
C=CCOC(=O)N[C@@H](Cc1ccc(C(=N)N)cc1)C(=O)N[C@@H](CCC(=O)O)C(=O)N[C@H](C(=O)NCCC(c1ccccc1)c1ccccc1)[C@@H](C)OCc1ccccc1 [Alloc-pAph-Glu-Thr(Bzl)-NH--CH2 --CH2 --CH(Ph)2] | 170 nM
C=CCNC(=O)N[C@@H](Cc1ccc(C(=N)N)cc1)C(=O)N[C@@H](CCC(=O)O)C(=O)N[C@@H](CCCNC(=N)N)C(=O)N[C@@H](CC1CCCCC1)C(N)=O [allyl-NH--C(O)-pAph-Glu-Arg-Cha-NH2] ({NHAllyl-CO}-[Phe(4-amidino)]ER[Cha]-NH2) | 42 nM

More lines, now with the values ahead:

Ki | Structure (SMILES)
12000 nM | C=CCOC(=O)N[C@@H](Cc1ccc(C(=N)N)cc1)C(=O)N[C@@H](CCC(=O)O)C(=O)N[C@H](CCCNC(=N)N)C(=O)N[C@@H](CC1CCCCC1)C(N)=O [Alloc--pAph--Glu--D--Arg--Cha--NH2] (Alloc-[Phe(4-amidino)]E[dR][Cha]-NH2)
22000 nM | C=CCOC(=O)N[C@@H](Cc1ccc(C(=N)N)cc1)C(=O)N[C@@H](CCC(=O)O)C(=O)N[C@H](CCCCNC(=N)N)C(=O)N[C@@H](CC1CCCCC1)C(N)=O [Alloc--pAph--Glu--D--Lys[--C(=NH)--NH2]--Cha--NH2] (Alloc-[Phe(4-amidino)]E[d(hArg)][Cha]-NH2)
150 nM | C=CCOC(=O)NCC[C@H](NC(=O)[C@H](CCC(=O)O)NC(=O)[C@H](Cc1ccc(C(=N)N)cc1)NC(=O)OCC=C)C(=O)N[C@@H](CC1CCCCC1)C(N)=O [Alloc--pAph--Glu--Dab(Alloc)--Cha--NH2] (Alloc-[Phe(4-amidino)]E[Dab](Alloc)[Cha]-NH2)
55 nM | C=CCOC(=O)N[C@@H](Cc1ccc(C(=N)N)cc1)C(=O)N[C@@H](CCC(=O)O)C(=O)N[C@@H](CCN)C(=O)N[C@@H](CC1CCCCC1)C(N)=O [Alloc--pAph--Glu--Dab--Cha--NH2, Alloc-pAph-Glu-Dab-Cha-NH2] (Alloc-[Phe(4-amidino)]E[Dab][Cha]-NH2)
190 nM | C=CCOC(=O)N[C@@H](Cc1ccc(C(=N)N)cc1)C(=O)N[C@@H](CCC(=O)O)C(=O)N[C@@H](CCNC(C)=N)C(=O)N[C@@H](CC1CCCCC1)C(N)=O [Alloc--pAph--Glu--Dab[--C(=NH)--CH3]--Cha--NH2]
12 nM | C=CCOC(=O)N[C@@H](Cc1ccc(C(=N)N)cc1)C(=O)N[C@@H](CCC(=O)O)C(=O)N[C@@H](CCNC(=N)N)C(=O)N[C@@H](CC1CCCCC1)C(N)=O [Alloc--pAph--Glu--Dab[--C(=NH)--NH2]--Cha--NH2] (Alloc-[Phe(4-amidino)]E[Agb][Cha]-NH2)
110 nM | C=CCOC(=O)N[C@@H](Cc1ccc(C(=N)N)cc1)C(=O)N[C@@H](CCC(=O)O)C(=O)N[C@@H](CCSC)C(=O)N[C@@H](CC1CCCCC1)C(N)=O [Alloc--pAph--Glu--Met--Cha--NH2] (Alloc-[Phe(4-amidino)]EM[Cha]-NH2)
130 nM | C=CCOC(=O)N[C@@H](Cc1ccc(C(=N)N)cc1)C(=O)N[C@@H](CCC(=O)O)C(=O)N[C@@H](CCCNC(C)=N)C(=O)N[C@@H](CC1CCCCC1)C(N)=O [Alloc--pAph--Glu--Orn[--C(=NH)--CH3]--Cha--NH2] (Alloc-[Phe(4-amidino)]E[Orn(acetimidoyl)][Cha]-NH2)
30 nM | C=CCOC(=O)N[C@@H](Cc1ccc(C(=N)N)cc1)C(=O)N[C@@H](CCC(=O)O)C(=O)N[C@@H](CC(=N)N)C(=O)N[C@@H](CC1CCCCC1)C(N)=O [Alloc-pAph-Glu-Ala[3-C(=NH)--NH2 ]-Cha-NH2]
110 nM | C=CCOC(=O)N[C@@H](Cc1ccc(C(=N)N)cc1)C(=O)N[C@@H](CCC(=O)O)C(=O)N[C@@H](CNC(C)=N)C(=O)N[C@@H](CC1CCCCC1)C(N)=O [Alloc-pAph-Glu-Dap[--C(=NH)--CH3 ]-Cha-NH2]
